How the values were obtained:
[1] = tested on: CK1α; test: CK1α degradation assay, Kelly cell line (Western blot densitometry); assay type: cell-based; conditions: 24 h
Method: Cells were seeded on 6-well plates, and the compounds to be tested were added at the desired concentration range. […] After 24 h incubation (37° C., 5% CO2), cells were washed and cell lysates were prepared using RIPA lysis buffer. The amount of protein was determined via BCA assay, and the appropriate quantity was then loaded on the precast gel for the protein separation. After primary and secondary Ab staining, the membranes were washed and signals developed. The densitometry analysis was implemented to obtain the numeric values used later in the protein level evaluation process.
(§1) The treatment with all compounds was carried out for 24 h.
(§2) Densitometry values are normalized to the loading control ((3-ACTIN) and presented as % of DMSO control, using the following labels: […]

[2] = tested on: IKZF1; test: IKZF1 degradation assay, H929 cell line (Western blot densitometry); assay type: cell-based; conditions: for % of IKZF1 protein reduction, based on densitometry values: 24 h
Method: Cells were seeded on 6- or 12-well plates, and the compounds to be tested were added at the desired concentration range. […] After 6 or 24 h incubation (3TC, 5% CO2), cells were harvested, washed and cell lysates were prepared using RIPA lysis buffer. The amount of protein was determined via BCA assay, and the appropriate quantity was then loaded on the precast gel for the protein separation. After primary and secondary Ab staining, the membranes were washed and signals developed. The densitometry analysis was implemented to obtain the numeric values used later in the protein level evaluation process. […] The treatment with all compounds was carried out for 24 h.

[3] = tested on: IKZF3; test: IKZF3 degradation assay, H929 cell line (Western blot densitometry); assay type: cell-based; conditions: 24 h
Method: Cells were seeded on 6- or 12-well plates, and the compounds to be tested were added at the desired concentration range. […] After 24 h incubation (3TC, 5% CO2), cells were harvested, washed and cell lysates were prepared using RIPA lysis buffer. The amount of protein was determined via BCA assay, and the appropriate quantity was then loaded on the precast gel for the protein separation. After primary and secondary Ab staining, the membranes were washed and signals developed. The densitometry analysis was implemented to obtain the numeric values used later in the protein level evaluation process.
as §1, §2

[4] = molecular target: CRBN-DDB1 protein complex (Homo sapiens, UniProt Q96SW2); test: Fluorescence Polarization (FP) assay, displacement of Cy5-labelled thalidomide; conditions: 25 nM CRBN-DDB1, 5 nM Cy5-labelled thalidomide, read-out: CRBN binding Ki
Method: CRBN-DDB1 protein complex was mixed with Cy5-labelled thalidomide and a compound to be tested (the “test compound”). […] The test solution was added to a 384-well assay plate.
The plate was spun-down (1 min, 1000 rpm, 22° C.) and then shaken using a VibroTurbulator for 10 min at room temperature (20-25° C.), with the frequency set to level 3. The assay plate with protein and the tracer was incubated for 60 min at room temperature (20-25° C.) prior to read-out with a plate reader.
The FP experiment was carried out with various concentrations of the test compounds in order to measure Ki values.

CRBN-DDB1 protein complex, sequence (Q96SW2 whole entry): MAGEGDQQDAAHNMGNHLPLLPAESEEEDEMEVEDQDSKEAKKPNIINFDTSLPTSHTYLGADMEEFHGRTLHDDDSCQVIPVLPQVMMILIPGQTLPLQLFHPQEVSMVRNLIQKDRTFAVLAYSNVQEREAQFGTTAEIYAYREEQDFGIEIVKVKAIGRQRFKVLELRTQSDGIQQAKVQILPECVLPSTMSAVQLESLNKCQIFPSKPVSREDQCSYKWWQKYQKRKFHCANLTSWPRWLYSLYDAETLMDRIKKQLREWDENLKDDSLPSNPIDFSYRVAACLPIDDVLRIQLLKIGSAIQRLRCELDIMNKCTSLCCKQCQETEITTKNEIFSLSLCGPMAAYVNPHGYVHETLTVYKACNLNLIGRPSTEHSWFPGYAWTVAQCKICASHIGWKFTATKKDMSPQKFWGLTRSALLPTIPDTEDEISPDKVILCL
CRBN-DDB1 protein complex, sequence (Q16531 whole entry partner): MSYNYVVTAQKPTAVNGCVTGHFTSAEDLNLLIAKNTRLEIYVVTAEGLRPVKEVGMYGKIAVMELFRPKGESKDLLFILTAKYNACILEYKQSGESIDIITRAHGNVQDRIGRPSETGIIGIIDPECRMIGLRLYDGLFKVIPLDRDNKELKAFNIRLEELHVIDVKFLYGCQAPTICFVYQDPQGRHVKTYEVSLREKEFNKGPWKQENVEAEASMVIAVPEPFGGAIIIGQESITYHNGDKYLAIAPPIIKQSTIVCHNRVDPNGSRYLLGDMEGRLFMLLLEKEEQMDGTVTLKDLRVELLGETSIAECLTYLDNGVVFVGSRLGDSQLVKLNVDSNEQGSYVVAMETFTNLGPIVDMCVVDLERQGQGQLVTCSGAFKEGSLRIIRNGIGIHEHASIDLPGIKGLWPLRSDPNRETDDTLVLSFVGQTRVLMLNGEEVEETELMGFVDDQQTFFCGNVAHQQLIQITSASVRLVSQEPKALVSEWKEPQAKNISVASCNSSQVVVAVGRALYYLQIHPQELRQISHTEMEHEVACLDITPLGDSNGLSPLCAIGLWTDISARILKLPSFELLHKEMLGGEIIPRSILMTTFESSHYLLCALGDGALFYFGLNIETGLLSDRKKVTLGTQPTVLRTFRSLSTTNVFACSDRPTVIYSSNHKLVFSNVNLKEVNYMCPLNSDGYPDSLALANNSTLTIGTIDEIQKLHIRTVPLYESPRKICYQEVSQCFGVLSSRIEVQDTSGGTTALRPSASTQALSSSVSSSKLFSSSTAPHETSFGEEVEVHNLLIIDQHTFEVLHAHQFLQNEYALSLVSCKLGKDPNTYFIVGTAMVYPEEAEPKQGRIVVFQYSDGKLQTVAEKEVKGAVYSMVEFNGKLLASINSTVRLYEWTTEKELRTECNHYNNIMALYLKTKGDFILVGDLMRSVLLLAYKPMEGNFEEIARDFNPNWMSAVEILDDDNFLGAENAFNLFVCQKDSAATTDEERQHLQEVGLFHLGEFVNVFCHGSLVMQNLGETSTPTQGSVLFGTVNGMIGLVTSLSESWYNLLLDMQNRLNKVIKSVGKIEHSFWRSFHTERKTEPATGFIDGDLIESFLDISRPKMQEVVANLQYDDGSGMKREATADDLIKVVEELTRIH

SMILES | % of CK1α protein reduction, based on densitometry values ([1]; 1 μM) | % of CK1α protein reduction, based on densitometry values ([1]; 10 μM) | % of CK1α protein reduction, based on densitometry values ([1]; 20 μM) | CK1α degradation (in words) [1] | % of IKZF1 protein reduction, based on densitometry values ([2]; 1 μM) | % of IKZF1 protein reduction, based on densitometry values ([2]; 10 μM) | % of IKZF3 protein reduction, based on densitometry values ([3]; 1 μM) | % of IKZF3 protein reduction, based on densitometry values ([3]; 10 μM) | % of IKZF1 protein reduction, IKZF 1 (24 H, 20 μM) [2] | Ki [4]
Cc1nc2cccc(N)c2c(=O)n1C1CCC(=O)NC1=O (centres unmarked) [CC-122, reference compound] | ≤25% (≤25% for 0-25% of CK1α protein reduction) | ≤25% (≤25% for 0-25% of CK1α protein reduction) | ≤25% (≤25% for 0-25% of CK1α protein reduction) | lack of degradation | ≥75% (≥75% for 75-100% of IKZF1 protein reduction) | ≥75% (≥75% for 75-100% of IKZF1 protein reduction) | ≥75% (≥75% for 75-100% of IKZF3 protein reduction) | ≥75% (≥75% for 75-100% of IKZF3 protein reduction) |  | 
COc1sccc1C(=O)NC1CCC(=O)NC1=O (centres unmarked) [Compound 20, N-(2,6-dioxopiperidin-3-yl)-2-methoxythiophene-3-carboxamide] |  |  |  |  | ≤25% (≤25% for 0-25% of IKZF1 protein reduction) | ≤25% (≤25% for 0-25% of IKZF1 protein reduction) | ≤25% (≤25% for 0-25% of IKZF3 protein reduction) | ≤25% (≤25% for 0-25% of IKZF3 protein reduction) | ≤25% (≤25% for 0-25% of IKZF1 protein reduction) | < 5 µM
O=C1CCC(NC(=O)c2sc(Cl)c3cccnc23)C(=O)N1 (centres unmarked) [Compound 106, 5-chloro-N-(2,6-dioxopiperidin-3-yl)thieno[3,4-b]pyridine-7-carboxamide] |  |  |  |  | ≤25% (≤25% for 0-25% of IKZF1 protein reduction) | ≤25% (≤25% for 0-25% of IKZF1 protein reduction) | ≤25% (≤25% for 0-25% of IKZF3 protein reduction) | ≤25% (≤25% for 0-25% of IKZF3 protein reduction) | ≤25% (≤25% for 0-25% of IKZF1 protein reduction) | < 5 µM
O=C1CCC(NC(=O)c2scc3cccnc23)C(=O)N1 (centres unmarked) [Compound 107, N-(2,6-dioxopiperidin-3-yl)thieno[3,4-b]pyridine-7-carboxamide] |  |  |  |  | ≤25% (≤25% for 0-25% of IKZF1 protein reduction) | ≤25% (≤25% for 0-25% of IKZF1 protein reduction) | ≤25% (≤25% for 0-25% of IKZF3 protein reduction) | ≤25% (≤25% for 0-25% of IKZF3 protein reduction) |  | < 5 µM
COc1ccsc1C(=O)NC1CCC(=O)NC1=O (centres unmarked) [Compound 108, N-(2,6-dioxopiperidin-3-yl)-3-methoxythiophene-2-carboxamide] |  |  | >25% (>25% for 26-74% of CK1α protein reduction) |  | ≤25% (≤25% for 0-25% of IKZF1 protein reduction) | ≤25% (≤25% for 0-25% of IKZF1 protein reduction) | ≤25% (≤25% for 0-25% of IKZF3 protein reduction) | ≤25% (≤25% for 0-25% of IKZF3 protein reduction) | ≤25% (≤25% for 0-25% of IKZF1 protein reduction) | < 5 µM
COCc1ncc(C(=O)NC2CCC(=O)NC2=O)s1 (centres unmarked) [Compound 111, N-(2,6-dioxopiperidin-3-yl)-2-(methoxymethyl)thiazole-5-carboxamide] |  |  |  |  | ≤25% (≤25% for 0-25% of IKZF1 protein reduction) | ≤25% (≤25% for 0-25% of IKZF1 protein reduction) | ≤25% (≤25% for 0-25% of IKZF3 protein reduction) | ≤25% (≤25% for 0-25% of IKZF3 protein reduction) | ≤25% (≤25% for 0-25% of IKZF1 protein reduction) | 10 to 50 µM
Nc1cccc2c1C(=O)N(C1CCC(=O)NC1=O)C2=O (centres unmarked) [Pomalidomide, pomalidomide, reference compound] | >25% (>25% for 26-74% of CK1α protein reduction) | >25% (>25% for 26-74% of CK1α protein reduction) | >25% (>25% for 26-74% of CK1α protein reduction) | to a lesser degree | ≥75% (≥75% for 75-100% of IKZF1 protein reduction) | ≥75% (≥75% for 75-100% of IKZF1 protein reduction) | ≥75% (≥75% for 75-100% of IKZF3 protein reduction) | ≥75% (≥75% for 75-100% of IKZF3 protein reduction) | ≥75% (≥75% for 75-100% of IKZF1 protein reduction) | 

Reference: US20230065745A1, “PIPERIDINE-2,6-DIONE DERIVATIVES WHICH BIND TO CEREBLON, AND METHODS OF USE THEREOF” (Captor Therapeutics S.A., priority 2019, published 2023)
